The record followed here is PMC3365763 (The Journal of Biological Chemistry, 2012).

What is called IC50 is the concentration needed to halve the response being measured. A high value points to weaker potency.

Residue numbers refer to the chain shown, from its start.

Holding throughout (type): biochemical
In test [1] the target is T1, TG2 (transglutaminase-2, transglutaminase type 2) (Homo sapiens, UniProt P21980).
T1 sequence (P21980 1-687): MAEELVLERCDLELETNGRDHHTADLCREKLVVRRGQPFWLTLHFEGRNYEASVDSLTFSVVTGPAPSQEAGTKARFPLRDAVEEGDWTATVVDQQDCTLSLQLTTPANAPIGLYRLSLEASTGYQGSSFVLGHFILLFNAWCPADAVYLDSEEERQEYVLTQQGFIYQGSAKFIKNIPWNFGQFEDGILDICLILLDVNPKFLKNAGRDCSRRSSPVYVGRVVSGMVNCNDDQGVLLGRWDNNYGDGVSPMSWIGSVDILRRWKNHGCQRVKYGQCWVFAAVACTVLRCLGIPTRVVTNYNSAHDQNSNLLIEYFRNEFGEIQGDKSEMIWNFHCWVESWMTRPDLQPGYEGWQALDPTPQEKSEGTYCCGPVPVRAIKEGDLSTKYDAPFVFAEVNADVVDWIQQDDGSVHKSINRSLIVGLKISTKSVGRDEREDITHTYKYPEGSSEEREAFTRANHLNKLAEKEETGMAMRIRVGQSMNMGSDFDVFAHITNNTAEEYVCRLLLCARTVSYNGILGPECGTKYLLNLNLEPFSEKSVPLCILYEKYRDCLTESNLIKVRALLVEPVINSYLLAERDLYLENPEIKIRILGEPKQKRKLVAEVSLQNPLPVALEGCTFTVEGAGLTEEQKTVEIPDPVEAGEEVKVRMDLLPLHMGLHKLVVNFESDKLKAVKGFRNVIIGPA

In test [2] the target is T2, TG2 (transglutaminase-2, transglutaminase type 2) (Homo sapiens, UniProt P21980, K202S/K205S).
T2 sequence (P21980 1-687 K202S/K205S): T1 sequence (P21980 1-687) with K202S, K205S

Test [3] has as its target T3, TG2 (transglutaminase-2, transglutaminase type 2) (Homo sapiens, UniProt P21980, K634S).
T3 sequence (P21980 1-687 K634S): T1 sequence (P21980 1-687) with K634S

Test [4] addresses T4, TG2 (transglutaminase-2, transglutaminase type 2) (Homo sapiens, UniProt P21980, R28S).
T4 sequence (P21980 1-687 R28S): T1 sequence (P21980 1-687) with R28S

Consider `Nc1nc2c(ncn2[C@@H]2O[C@H](COP(=O)(O)OP(=O)(O)OP(=O)(O)O)[C@@H](O)[C@H]2O)c(=O)[nH]1` [GTP], for which the IC50 in test [1] was 142 ± 24 µM; in test [2] it was 145 ± 23 µM; in test [3] it was 199 ± 36 µM; in test [4], 64 ± 27 µM.
